Source: patent US8921576B2, “Spiroindoline compound, and medicinal agent comprising same” (Kowa Company, Ltd., priority 2011, dated 2014)

The compounds below were run against T1, GST-GK derived from human liver GK (Homo sapiens, UniProt P35557) (assay: In vitro GK activity measurement test (G6PDH-coupled, OD340)). Settings: test compound 1 μmol/L; glucose 2.5 mmol/L; 25° C.; OD340 slope with compound / without compound; read-out: GK activation rate (%).
T1 construct: made in house; host or cells: Escherichia coli DH5α
T1 sequence (P35557 1-466 isoform P35557-2): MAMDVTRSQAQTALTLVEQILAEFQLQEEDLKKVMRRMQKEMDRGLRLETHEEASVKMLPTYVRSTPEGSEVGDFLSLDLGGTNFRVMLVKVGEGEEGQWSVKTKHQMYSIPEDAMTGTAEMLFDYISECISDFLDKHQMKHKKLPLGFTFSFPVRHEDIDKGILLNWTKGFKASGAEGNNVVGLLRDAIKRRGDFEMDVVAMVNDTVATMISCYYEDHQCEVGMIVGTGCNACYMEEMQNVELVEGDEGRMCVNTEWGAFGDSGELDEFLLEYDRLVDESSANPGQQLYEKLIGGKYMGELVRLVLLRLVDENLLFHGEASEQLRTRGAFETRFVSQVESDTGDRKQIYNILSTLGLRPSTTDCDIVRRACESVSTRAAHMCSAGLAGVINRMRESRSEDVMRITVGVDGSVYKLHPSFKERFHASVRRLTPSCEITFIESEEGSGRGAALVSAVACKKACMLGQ
Type: biochemical
Text: cDNA (GenBank Accession No. NM_033507, human glucokinase, variant 2) encoding human liver-type GK polypeptide was cloned by performing a polymerase chain reaction (hereinafter referred to as “PCR”) using a human liver cDNA library (Human liver QUICK-Clone cDNA, TAKARA BIO INC.), and the thus cloned cDNA was then introduced into an expression vector (pGEX-3X, GE Healthcare Japan) for glutathione S transferase (hereinafter referred to as GST) fusion protein expression. The resulting vector was introduced into Escherichia coli (Competent high DH5α, Toyobo Co., Ltd.), and the transformed Escherichia coli was then cultured at 37° C. Thereafter, Isopropyl β-D-1-thiogalactopyranoside (final concentration: 1 mmol/L, Sigma Aldrich Japan) was added to the culture, and the obtained mixture was then cultured at 30° C. for 3 hours. Thereafter, a cell mass was recovered. The recovered cell mass was subjected to freezing-and-thawing, and the resulting cell mass was then suspended in phosphate buffer with final concentration of 1% Triton X-100, followed by disintegration with an ultrasonic disruptor. The homogenate was centrifuged at 33,200 rpm at 4° C. for 1 hour. Thereafter, the supernatant was recovered, and a GST-GK fusion protein was then purified using a glutathione column (GSTrap FF, GE Healthcare Japan). The obtained GST-GK fusion protein was divided into some portions each having a small volume, and the thus divided proteins were then preserved at −80° C.
A GK assay method was carried out at 25° C. at a final incubation volume of 100 μL in a flat-bottom 96-well assay plate. An assay buffer comprised 25 mmol/L Hepes buffer (pH 7.1), 25 mmol/L KCl, 2.5 mmol/L or 10 mmol/L D-glucose, 5 mmol/L ATP, 1 mmol/L nicotinamide adenine dinucleotide phosphate (abbreviated as NADP), 2 mmol/L MgCl2, 1 mmol/L dithiothreitol (DTT), 2 units/mL glucose-6 phosphate dehydrogenase (G6PDH), and 1 μg/mL GST-GK derived from human liver GK. ATP, G6PDH, and NADP were purchased from Roche Diagnostics. […] The thus mixed solution was preincubated in an incubator in which the temperature was controlled at 25° C. for 15 minutes. Subsequently, the reaction was initiated by adding 10 μL of the GST-GK solution to the reaction mixture, resulting in a final concentration of 0.1 μg/mL. After initiation of the reaction, an increase in the optical concentration at 340 nm (OD340) was monitored with a microplate spectrophotometer (Varsamax, Molecular Devices Japan K.K.) every 10 seconds over an incubation period of 10 minutes. An inclination of the OD340 increase was defined as raw data. The GK activating rate was indicated as a numerical value obtained from the expression: (Inclination of OD340 increase by addition of the test compound)/(inclination of OD340 increase without addition of the test compound). The results of the GK activating rate obtained at a test compound concentration of 1 μmol/L under the condition of a glucose concentration of 2.5 mmol/L are shown in the following table.

| activity at 1 µM [%] | SMILES |
| --- | --- |
| 633 | CNC(=S)N1CCC2(C1)CN(C(=O)Nc1ncc(Cl)s1)c1ccc(Cl)cc12 (centres unmarked) [Example 449, 5-Chloro-N-(5-chlorothiazol-2-yl)-1′-(methylcarbamothioyl)spiro[indoline-3,3′-pyrrolidine]-1-carboxamide] |
| 474 | CNC(=O)CCNC(=O)N1CCC2(C1)CN(C(=O)Nc1ncc(Cl)s1)c1ccc(Cl)cc12 (centres unmarked) [Example 465, 5-Chloro-N1-(5-chlorothiazol-2-yl)-N1′-(3-(methylamino)-3-oxopropyl)spiro[indoline-3,3′-pyrrolidine]-1,1′-dicarboxamide] |
| 437 | CNC(=O)N1CC[C@@]2(C1)CN(C(=O)Nc1ncc(F)s1)c1ccc(Cl)cc12 [Example 374, (R)-5-chloro-N1-(5-fluorothiazol-2-yl)-N1′-methylspiro[indoline-3,3′-pyrrolidine]-1,1′-dicarboxamide] |
| 465 | CNC(=O)N1CC[C@@]2(C1)CN(C(=O)Nc1ncc(OC)s1)c1ccc(C#N)cc12 [Example 381, (R)-5-Cyano-N1-(5-methoxythiazol-2-yl)-N1′-methylspiro[indoline-3,3′-pyrrolidine]-1,1′-dicarboxamide] |
| 480 | CS(=O)(=O)CCNC(=O)N1CCC2(C1)CN(C(=O)Nc1ncc(Cl)s1)c1ccc(Cl)cc12 (centres unmarked) [Example 467, 5-chloro-N1-(5-chlorothiazol-2-yl)-N1′-(2-(methylsulfonyl)ethyl)spiro[indoline-3,3′-pyrrolidine]-1,1′-dicarboxamide] |
| 554 | CCNC(=O)N1CCC2(C1)CN(C(=O)Nc1ncc(Cl)s1)c1ccc(Cl)cc12 (centres unmarked) [Example 379, 5-Chloro-N1-(5-chlorothiazol-2-yl)-N1′-ethylspiro[indoline-3,3′-pyrrolidine]-1,1′-dicarboxamide] |
| 636 | COC(=O)N1CC[C@@]2(C1)CN(C(=O)Nc1ncc(F)s1)c1ccc(Cl)cc12 [Example 355, (S)-methyl 5-chloro-1-((5-fluorothiazol-2-yl)carbamoyl)spiro[indoline-3,3′-pyrrolidine]-1′-carboxylate] |
| 432 | CC(=O)N1CCC2(C1)CN(C(=O)Nc1ncc(Cl)s1)c1ccc(C(F)(F)F)cc12 (centres unmarked) [Example 431, 1′-acetyl-N-(5-chlorothiazol-2-yl)-5-(trifluoromethyl)spiro[indoline-3,3′-pyrrolidine]-1-carboxamide] |
| 486 | NCC(=O)N1CC[C@@]2(C1)CN(C(=O)Nc1ncc(Cl)s1)c1ccc(Cl)cc12 [Example 353, (R)-1′-(2-aminoacetyl)-5-chloro-N-(5-chlorothiazol-2-yl)spiro[indoline-3,3′-pyrrolidine]-1-carboxamide] |
| 446 | O=C(CCNC(=O)N1CCC2(C1)CN(C(=O)Nc1ncc(Cl)s1)c1ccc(Cl)cc12)N1CCC1 (centres unmarked) [Example 466, N1′-(3-(Azetidin-1-yl)-3-oxopropyl)-5-chloro-N1-(5-chlorothiazol-2-yl)spiro[indoline-3,3′-pyrrolidine]-1,1′-dicarboxamide] |

Continued, compound first:

| SMILES | activity at 1 µM [%] |
| --- | --- |
| COC(=O)N1CCC2(C1)CN(C(=O)Nc1ncc(Oc3cccc(C(N)=O)c3)s1)c1ccc(Cl)cc12 (centres unmarked) [Example 186, methyl 1-((5-(3-carbamoylphenoxy)thiazol-2-yl)carbamoyl)-5-chlorospiro[indoline-3,3′-pyrrolidine]-1′-carboxylate] | 583 |
| COC(=O)N1CCC2(C1)CN(C(=O)Nc1ncc(SCCCN(C)C)s1)c1ccc(Cl)cc12 (centres unmarked) [Example 180, Methyl 5-chloro-1-((5-((3-(dimethylamino)propyl)thio)thiazol-2-yl)carbamoyl)spiro[indoline-3,3′-pyrrolidine]-1′-carboxylate] | 442 |
| CNC(=O)CCCSc1cnc(NC(=O)N2CC3(CCN(C(=O)OC)C3)c3cc(Cl)ccc32)s1 (centres unmarked) [Example 164, methyl 5-chloro-1-((5-((4-(methylamino)-4-oxobutyl)thio)thiazol-2-yl)carbamoyl)spiro[indoline-3,3′-pyrrolidine]-1′-carboxylate] | 567 |
| COC(=O)N1CCC2(C1)CN(C(=O)Nc1nc3ccc(OC)nc3s1)c1ccc(S(=O)(=O)N(CCC(=O)O)Cc3ccccc3)cc12 (centres unmarked) [Example 307, 3-(N-benzyl-1′-(methoxycarbonyl)-1-((5-methoxythiazolo[5,4-b]pyridin-2-yl)carbamoyl)spiro[indoline-3,3′-pyrrolidin]-5-ylsulfonamido)propionic acid] | 887 |
| COC(=O)N1CC[C@@]2(C1)CN(C(=O)Nc1nc3ccc(OC)nc3s1)c1ccc(S(=O)(=O)N(CCCC(=O)O)Cc3ccccc3)cc12 [Example 342, (S)-4-(N-benzyl-1′-(methoxycarbonyl)-1-((5-methoxythiazolo[5,4-b]pyridin-2-yl)carbamoyl)spiro[indoline-3,3′-pyrrolidin]-5-ylsulfonamido)butyric acid] | 420 |
| COC(=O)N1CCC2(C1)CN(C(=O)Nc1ncc(SC(C)CO)s1)c1ccc(Cl)cc12 (centres unmarked) [Example 141, methyl 5-chloro-1-((5-((1-hydroxypropan-2-yl)thio)thiazol-2-yl)carbamoyl)spiro[indoline-3,3′-pyrrolidine]-1′-carboxylate] | 574 |
| COC(=O)N1CCC2(C1)CN(C(=O)Nc1ncc(SCCCNC(C)=O)s1)c1ccc(Cl)cc12 (centres unmarked) [Example 177, methyl 1-((5-((3-acetamidopropyl)thio)thiazol-2-yl)carbamoyl)-5-chlorospiro[indoline-3,3′-pyrrolidine]-1′-carboxylate] | 530 |
| COCCCN(Cc1ccccc1)S(=O)(=O)c1ccc2c(c1)C1(CCN(C(C)=O)C1)CN2C(=O)Nc1nc2ccc(OC)nc2s1 (centres unmarked) [Example 289, 1′-Acetyl-5-(N-benzyl-N-(3-methoxypropyl)sulfamoyl)-N-(5-methoxythiazolo[5,4-b]pyridin-2-yl)spiro[indoline-3,3′-pyrrolidine]-1-carboxamide] | 752 |
| COC(=O)N1CCC2(C1)CN(C(=O)Nc1ncc(SCCCC(=O)NO)s1)c1ccc(Cl)cc12 (centres unmarked) [Example 169, methyl 5-chloro-1-((5-((4-(hydroxyamino)-4-oxobutyl)thio)thiazol-2-yl)carbamoyl)spiro[indoline-3,3′-pyrrolidine]-1′-carboxylate] | 532 |
| COCCN(Cc1ccccc1)S(=O)(=O)c1ccc2c(c1)C1(CCN(C(C)=O)C1)CN2C(=O)Nc1nc2ccc(OC)nc2s1 (centres unmarked) [Example 288, 1′-Acetyl-5-(N-benzyl-N-(2-methoxyethyl)sulfamoyl)-N-(5-methoxythiazolo[5,4-b]pyridin-2-yl)spiro[indoline-3,3′-pyrrolidine]-1-carboxamide] | 793 |
| CNC(=O)CCSc1cnc(NC(=O)N2CC3(CCN(C(=O)OC)C3)c3cc(Cl)ccc32)s1 (centres unmarked) [Example 151, methyl 5-chloro-1-((5-((3-(methylamino)-3-oxopropyl)thio)thiazol-2-yl)carbamoyl)spiro[indoline-3,3′-pyrrolidine]-1′-carboxylate] | 656 |
| COC(=O)N1CCC2(C1)CN(C(=O)Nc1ncc(SCCC(=O)N3CCOCC3)s1)c1ccc(Cl)cc12 (centres unmarked) [Example 154, methyl 5-chloro-1-((5-((3-morpholino-3-oxopropyl)thio)thiazol-2-yl)carbamoyl)spiro[indoline-3,3′-pyrrolidine]-1′-carboxylate] | 473 |
| CONC(=O)CCCSc1cnc(NC(=O)N2CC3(CCN(C(=O)OC)C3)c3cc(Cl)ccc32)s1 (centres unmarked) [Example 168, methyl 5-chloro-1-((5-((4-(methoxyamino)-4-oxobutyl)thio)thiazol-2-yl)carbamoyl)spiro[indoline-3,3′-pyrrolidine]-1′-carboxylate] | 462 |
